Measurements from patent US9776962B2, “Aromatic compounds with GPR40 agonistic activity” (TAKEDA PHARMACEUTICAL COMPANY LIMITED, priority 2013, dated 2017).

Target: T1, human GPR40 (Homo sapiens, UniProt O14842)
T1 construct: expressed in transfected cells
Experiment: Evaluation of human GPR40 agonist activity with increase in intracellular Ca2+ concentration as an index (FLIPR)
Assay type: cell-based
Conditions: test compound 1 μM; CHO(dhfr−) cells stably expressing human GPR40; 100% = 10 μM compound of Example 153, 0% = DMSO
In short: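 CHO(dhfr−) cells stably expressing full-length human GPR40 were loaded with Ca2+ probe for 1 h at room temperature, then given test compound at 1 μM final. Fluorescence was followed on FLIPR, with activity scaled to a reference agonist at 10 μM (100%) and DMSO (0%).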

T1 sequence (O14842 whole entry): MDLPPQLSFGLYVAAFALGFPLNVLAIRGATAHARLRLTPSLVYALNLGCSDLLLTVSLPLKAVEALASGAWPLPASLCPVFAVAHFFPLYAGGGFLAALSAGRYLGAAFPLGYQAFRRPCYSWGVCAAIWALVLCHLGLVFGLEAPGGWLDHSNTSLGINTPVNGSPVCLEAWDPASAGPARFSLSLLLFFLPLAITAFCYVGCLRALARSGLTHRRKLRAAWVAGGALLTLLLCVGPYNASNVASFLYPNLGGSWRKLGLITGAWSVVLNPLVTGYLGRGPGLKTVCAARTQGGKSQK

| activation at 1 µM | SMILES |
| --- | --- |
| 11% | Cc1cccc(N(CC(C)(C)C)C(=O)c2ccc(C(N)=O)cc2N2CCC(COc3cc(C(CC(=O)O)C4CC4)ccn3)CC2)n1 (stereo not drawn) [Example 261, 3-(2-((1-(5-carbamoyl-2-((2,2-dimethylpropyl)(6-methylpyridin-2-yl)carbamoyl)phenyl)piperidin-4-yl)methoxy)pyridin-4-yl)-3-cyclopropylpropanoic acid] |
| 90% | CSc1ccc(C(=O)N(CC(C)(C)C)c2cccc(C)n2)c(N2CCC(COc3cc(C(CC(=O)O)C4CC4)ccn3)CC2)c1 (stereo not drawn) [Example 262, 3-cyclopropyl-3-(2-((1-(2-((2,2-dimethylpropyl)(6-methylpyridin-2-yl)carbamoyl)-5-(methylsulfanyl)phenyl)piperidin-4-yl)methoxy)pyridin-4-yl)propanoic acid] |
| 94% | Cc1cccc(N(CC(C)(C)C)C(=O)c2ccc(Br)cc2N2CCC(COc3cc(C(CC(=O)O)C4CC4)ccn3)CC2)n1 (stereo not drawn) [Example 263, 3-(2-((1-(5-bromo-2-((2,2-dimethylpropyl)(6-methylpyridin-2-yl)carbamoyl)phenyl)piperidin-4-yl)methoxy)pyridin-4-yl)-3-cyclopropylpropanoic acid] |
| 52% | Cc1cccc(N(CC(C)(C)C)C(=O)c2ccc(S(C)(=O)=O)cc2N2CCC(COc3cc(C(CC(=O)O)C4CC4)ccn3)CC2)n1 (stereo not drawn) [Example 264, 3-cyclopropyl-3-(2-((1-(2-((2,2-dimethylpropyl)(6-methylpyridin-2-yl)carbamoyl)-5-(methylsulfonyl)phenyl)piperidin-4-yl)methoxy)pyridin-4-yl)propanoic acid] |
| 85% | Cc1cccc(N(CC(C)(C)C)C(=O)c2c(F)cc(Cl)cc2N2CCC(COc3cc(C(CC(=O)O)C4CC4)ccn3)CC2)n1 (stereo not drawn) [Example 265, 3-(2-((1-(5-chloro-2-((2,2-dimethylpropyl)(6-methylpyridin-2-yl)carbamoyl)-3-fluorophenyl)piperidin-4-yl)methoxy)pyridin-4-yl)-3-cyclopropylpropanoic acid] |
| 94% | Cc1cccc(N(CC(C)(C)C)C(=O)c2ccc(Cl)cc2N2CCC(COc3cc(C(CC(=O)O)C4CC4)ccn3)CC2)n1 (stereo not drawn) [Example 266, 3-(2-((1-(5-chloro-2-((2,2-dimethylpropyl)(6-methylpyridin-2-yl)carbamoyl)phenyl)piperidin-4-yl)methoxy)pyridin-4-yl)-3-cyclopropylpropanoic acid] |
| 96% | Cc1cccc(N(CC(C)(C)C)C(=O)c2ccc(OC(F)F)cc2N2CCC(COc3cc(C(CC(=O)O)C4CC4)ccn3)CC2)n1 (stereo not drawn) [Example 267, 3-cyclopropyl-3-(2-((1-(5-(difluoromethoxy)-2-((2,2-dimethylpropyl)(6-methylpyridin-2-yl)carbamoyl)phenyl)piperidin-4-yl)methoxy)pyridin-4-yl)propanoic acid] |
| 92% | COc1ccc(C(=O)N(CC(C)(C)C)c2cccc(C)n2)c(N2CCC(C(C)Oc3cc(C(CC(=O)O)C4CC4)ccn3)CC2)c1 (stereo not drawn) [Example 268, 3-cyclopropyl-3-(2-(1-(1-(2-((2,2-dimethylpropyl)(6-methylpyridin-2-yl)carbamoyl)-5-methoxyphenyl)piperidin-4-yl)ethoxy)pyridin-4-yl)propanoic acid] |
| 103% | COc1ccc(C(=O)N(CC(C)(C)C)c2cccc(C)n2)c(N2CCC(COc3cccc(C(CC(=O)O)OC)c3)CC2)c1 (stereo not drawn) [Example 269, 3-(3-((1-(2-((2,2-dimethylpropyl)(6-methylpyridin-2-yl)carbamoyl)-5-methoxyphenyl)piperidin-4-yl)methoxy)phenyl)-3-methoxypropanoic acid] |
| 95% | CCOC(CC(=O)O)c1cccc(OCC2CCN(c3cc(OC)ccc3C(=O)N(CC(C)(C)C)c3cccc(C)n3)CC2)c1 (stereo not drawn) [Example 270, 3-(3-((1-(2-((2,2-dimethylpropyl)(6-methylpyridin-2-yl)carbamoyl)-5-methoxyphenyl)piperidin-4-yl)methoxy)phenyl)-3-ethoxypropanoic acid] |
| 98% | COc1ccc(C(=O)N(CC(F)(F)F)c2cc(C)ccn2)c(N2CCC(COc3cc(C(CC(=O)O)OC)ccn3)CC2)c1 (stereo not drawn) [Example 271, 3-methoxy-3-(2-((1-(5-methoxy-2-((4-methylpyridin-2-yl)(2,2,2-trifluoroethyl)carbamoyl)phenyl)piperidin-4-yl)methoxy)pyridin-4-yl)propanoic acid] |
| 95% | CCOC(CC(=O)O)c1ccnc(OCC2CCN(c3cc(OC)ccc3C(=O)N(CC(C)(C)C)c3cccc(C)n3)CC2)c1 (stereo not drawn) [Example 272, 3-(2-((1-(2-((2,2-dimethylpropyl)(6-methylpyridin-2-yl)carbamoyl)-5-methoxyphenyl)piperidin-4-yl)methoxy)pyridin-4-yl)-3-ethoxypropanoic acid] |
| 101% | COc1ccc(C(=O)N(CC(C)(C)C)c2ncccn2)c(N2CCC(COc3cc(C(CC(=O)O)C4CC4)c(F)cn3)CC2)c1 (stereo not drawn) [Example 273, 3-cyclopropyl-3-(2-((1-(2-((2-dimethylpropyl)-(pyrimidin-2-yl)-carbamoyl)-5-methoxy-phenyl)piperidin-4-yl)-methoxy)-5-fluoropyridin-4-yl)propanoic acid] |
| 104% | COc1ccc(C(=O)N(CC(C)(C)C)c2cccc(C)n2)c(N2CCC(COc3cc(C(CC(=O)O)C4CC4)c(F)cn3)CC2)c1 (stereo not drawn) [Example 274, 3-cyclopropyl-3-(2-((1-(2-((2,2-dimethylpropyl)-(6-methylpyridin-2-yl)carbamoyl)-5-methoxyphenyl)piperidin-4-yl)methoxy)-5-fluoropyridin-4-yl)propanoic acid] |
| 99% | COc1ccc(C(=O)N(CC(C)(C)C)c2cccc(C)n2)c(N2CCC(COc3cccc(C(CC(=O)O)C4CC4)c3F)CC2)c1 (stereo not drawn) [Example 275, 3-cyclopropyl-3-(3-((1-(2-((2-dimethylpropyl)-(6-methylpyridin-2-yl)-carbamoyl)-5-methoxy-phenyl)piperidin-4-yl)methoxy)-2-fluoro-phenyl)propanoic acid] |
| 96% | COCC(CC(=O)O)c1cccc(OCC2CCN(c3cc(OC)ccc3C(=O)N(CC(C)(C)C)c3cccc(C)n3)CC2)c1 (stereo not drawn) [Example 276, 3-(3-((1-(2-((2,2-dimethylpropyl) (6-methylpyridin-2-yl)carbamoyl)-5-methoxyphenyl)piperidin-4-yl)methoxy)phenyl)-4-methoxybutanoic acid] |
| 110% | COc1ccc(C(=O)N(CC(C)(C)C)c2cccc(C)n2)c(N2CCC(COc3cccc(C(C)(C)CC(=O)O)c3)CC2)c1 [Example 277, 3-(3-((1-(2-((2,2-dimethylpropyl) (6-methylpyridin-2-yl)carbamoyl)-5-methoxyphenyl)piperidin-4-yl)methoxy)phenyl)-3-methylbutanoic acid] |
| 78% | COc1ccc(C(=O)N(CC(C)(C)C)c2cccc(C)n2)c(N2CCC(COc3cccc(C4(CC(=O)O)COC4)c3)CC2)c1 [Example 278, (3-(3-((1-(2-((2,2-dimethylpropyl) (6-methylpyridin-2-yl)carbamoyl)-5-methoxyphenyl)piperidin-4-yl)methoxy)phenyl)oxetan-3-yl)acetic acid] |
